Earlier results, collected in patent US20240415944A1, “Aqueous aprotinin-containing antiviral pharmaceutical composition” (priority 2021, published 2024).
Like-named read-outs stand apart in the source and are kept apart here.

Experiments:
[1] = system: influenza; conditions: adult influenza patients
[2] = clinical trials of acute uncomplicated influenza
[3] = system: kallikrein; conditions: manufacturer data
[4] = kallikrein inactivating units per mg

## CCOC(=O)C1=C[C@@H](OC(CC)CC)[C@H](NC(C)=O)[C@@H](N)C1 [Oseltamivir, oseltamivir]
[1]
  mean time to relief of clinical symptoms: 97.5 h
  risk of nausea (RR): 1.60
  risk of vomiting (RR): 2.43
[1]; versus placebo
  acceleration of time to relief of clinical symptoms: 17.8 to 25.2 h

## COC(=O)OCOc1c2n(ccc1=O)N([C@@H]1c3ccccc3SCc3c1ccc(F)c3F)[C@@H]1COCCN1C2=O [baloxavir, baloxavir marboxil]
[2]
  adverse reaction: bronchitis: 3%
  adverse reaction: diarrhea: 3%
  adverse reaction: headache: 1%
  adverse reaction: nausea: 2%
  adverse reaction: sinusitis: 2%

## aprotinin [aprotinin produced by Sigma-Aldrich (USA)]
[3]; [4]
  aprotinin activity: 6500 KIU/mg

## aprotinin [aprotinin produced by Wanhua Biochem (China) No. NATE-1892]
[3]; [4]
  aprotinin activity: > 5400 KIU/mg
[3]
  aprotinin activity: > 3.0 EPU/mg
